Data from publication PMC7070167, “Cell‐permeable high‐affinity tracers for Gq proteins provide structural insights, reveal distinct binding kinetics and identify small molecule inhibitors” (British Journal of Pharmacology, 2020).
“And” between values parts separate entries of the source, which are not always exact repeats. Identical values can stand only once. *1 amine or outer side, *2 acyl side, *3 side chain or, on linkers, in order; H or OH if unused. Where a SMILES comes first, the peptide text is derived from it. Bridges are numbered along the chain shown (N, C = ends). [ ]: non-standard residue; d: D form. The star is where a group is joined. Leu(3R-O(AcLeu(3R-OH))) = CC(=O)N[C@H](C(=O)O[C@H](C(C)C)[C@H](N)C(=O)O)[C@H](O)C(C)C; Leu(3R-OH,Nα-propionyl) = CCC(=O)N[C@H](C(=O)*)[C@H](O)C(C)C; X1 = CC(C)[C@@H](O[*:3])[C@H](N[*:1])C(=O)[*:2]; NMeT = CN[C@H](C(=O)O)[C@@H](C)O; dPhLac = O=C(O)[C@H](O)Cc1ccccc1; NMeA = CN[C@@H](C)C(=O)O; NMeDha = C=C(NC)C(=O)O

Target: T1, Gq proteins (Homo sapiens, UniProt P50148)
T1 construct: Native cell membrane preparations from rat brain cortex and human blood platelets; host or cells: human platelets (intact suspension or membrane preparation)
T1 sequence (P50148 1-359): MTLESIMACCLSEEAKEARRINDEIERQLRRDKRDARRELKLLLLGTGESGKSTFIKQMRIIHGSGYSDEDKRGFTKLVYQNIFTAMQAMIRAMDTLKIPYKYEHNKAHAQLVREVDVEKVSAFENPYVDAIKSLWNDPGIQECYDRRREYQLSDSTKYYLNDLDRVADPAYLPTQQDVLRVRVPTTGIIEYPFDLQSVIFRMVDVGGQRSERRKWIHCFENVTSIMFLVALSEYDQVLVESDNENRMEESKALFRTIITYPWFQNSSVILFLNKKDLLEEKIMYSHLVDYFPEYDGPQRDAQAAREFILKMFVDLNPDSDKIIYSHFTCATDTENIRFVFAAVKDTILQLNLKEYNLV
Assay: Competition binding at human platelet membrane preparations
Conditions: for Ki / pseudo‐Bmax from pseudohomologous competition: human platelet membranes, 37°C
Protocol: Apheresis‐purified human thrombocyte‐plasma concentrates were centrifuged (1,000 g at 4°C for 10 min), and the supernatant was decanted and centrifuged again (at 48,400 g, 4°C, for 60 min). The supernatant was kept and used as platelet‐poor plasma for control experiments; the formed pellet was resuspended in buffer 1 (50‐mM Tris–HCl, 5‐mM EDTA, and 150‐mM NaCl) and centrifuged at 48,400 g, 4°C for 60 min. The supernatant was discarded again and the pellet was resuspended in buffer 2 (5‐mM Tris–HCl and 5‐mM EDTA). The cell suspension was homogenized using an Ultra‐Turrax® (IKA Laborechnik, Staufen, Germany) for 1 min at a speed level of 4, subsequently transferred into cryovials, and stored at −80°C before use (the preparation is stable for several months). For radioligand binding assays, 50 μg of protein per vial was used, determined by the method of Bradford (Bio‐Rad Protein Assay).
The experiments were performed in 50‐mM Tris–HCl buffer, pH 7.4. The final assay volume of 200 μl contained 5 μl of test compound in DMSO, 50 μl of [^3H]PSB‐15900 or [^3H]PSB‐16254, respectively, in buffer, 5 nM of final concentration, and 100 μl of human platelet membrane preparation (50 μg of protein) or intact human platelets (7.5 × 10^6 cells/vial). Non‐specific binding was determined in the presence of 5‐μM FR. The incubation was started by the addition of membrane preparation and was performed at 37°C for 1 hr with gentle shaking. It was terminated by rapid vacuum filtration through GF/C glass‐fibre filters using a Brandel 24‐well harvester. The filters were rinsed three times with approximately 3 ml each of ice‐cold Tris–HCl buffer, 50 mM, pH 7.4 containing 0.1% Tween 20 and 0.1% BSA, to separate bound from free radioligand. The filters were punched out and transferred to scintillation vials. Luma Safe® scintillation cocktail (2.5 ml) was added, and after 6 hr of incubation, the samples were counted for 1 min each, using a liquid scintillation counter (counting efficiency 53%). Experiments in the presence of GTP were additionally performed after preincubation of the membrane preparation with GTP for 1 hr. pIC50 and pKi values were calculated using equations for one‐site competition as implemented in GraphPad Prism 6.01 (GraphPad Inc., La Jolla, CA, USA).

[1] = pKi, versus [^3H]PSB‐15900 (5 nM)
[2] = pKi, versus [^3H]PSB‐16254 (5 nM)

Row | SMILES | Kd | Ki (Ki, versus both radioligands) | Ki (Ki, versus [³H]PSB-15900 (5 nM), standard 24-well format) | Ki [1] | Ki [2] | Ki (pKi, versus [³H]PSB-15900 (5 nM), standard 24-well format) | pseudo‐Bmax from pseudohomologous competition (versus [^3H]PSB‐15900 (5 nM)) | pseudo‐Bmax from pseudohomologous competition (versus [^3H]PSB‐16254 (5 nM))
1 | C=C1C(=O)N[C@@H](C)C(=O)N(C)[C@@H](C)C(=O)N[C@@H]([C@H](OC(=O)[C@@H](NC(=O)CC)[C@H](O)C(C)C)C(C)C)C(=O)N(C)[C@@H]([C@@H](C)OC)C(=O)O[C@H](C(C)C)[C@H](NC(C)=O)C(=O)O[C@H](Cc2ccccc2)C(=O)N1C [FR, FR900359] (Ac-[X1][dPhLac][NMeDha]A[NMeA][X1](Leu(3R-OH,Nα-propionyl))[NMeT](Me); ester 1-C) | 4.1 ± 0.5 nM | 3 to 5 nM | 6.91 ± 2.25 nM | 4.07 nM | 2.51 nM | 6.76 nM | 6.28 ± 1.12 pmol·mg^−1 of protein and 6.28 pmol·mg^−1 of protein | –
2 | C=C1C(=O)N[C@@H](C)C(=O)N(C)[C@@H](C)C(=O)N[C@@H]([C@H](OC(=O)[C@@H](NC(C)=O)[C@H](O)C(C)C)C(C)C)C(=O)N(C)[C@@H]([C@@H](C)OC)C(=O)O[C@H](C)[C@H](NC(C)=O)C(=O)O[C@H](Cc2ccccc2)C(=O)N1C [YM, YM‐254890] (Ac-T[dPhLac][NMeDha]A[NMeA][Leu(3R-O(AcLeu(3R-OH)))][NMeT](Me); ester 1-C) | 6.29 ± 0.84 nM | 3 to 5 nM | – | 5.01 nM | 6.31 nM | – | – | 6.61 ± 0.60 pmol·mg^−1 of protein and 6.61 pmol·mg^−1 of protein
